Experimental data from PMC9229949 (Pharmaceutics, 2022).
Like-named read-outs stand apart in the source and are kept apart here.

Columns and labels:
[1] = Cytotoxicity against J774 cells (CellTiter-Glo); assay type: cell-based, murine; conditions: mouse, J774 macrophage cells; J774 macrophages, 72 h, CellTiterGlo; at least two experiments; read-out: CC50 ± S.E.M.
Protocol: In vitro cytotoxicity was assayed against two mammalian cell lineages, J774 (murine macrophages) and HepG2 (human hepatocellular carcinoma). […] Cell cultures from 60 to 80% confluence were trypsinized, washed in complete medium, and 4 × 10^4 cells were plated in 100 µL per well with complete medium in 96-well flat-bottom white plates for 24 h at 37 °C prior to the addition of the compounds. Triplicate aliquots of compound and the reference drugs (stock solution in DMSO) covering 7 different concentrations at 2-fold dilutions were added to the wells, and plates were incubated for 72 h more. After incubation for 72 h at 37 °C, plates were maintained at room temperature, the culture medium was removed, and 100 µL volume of CellTiter-Glo reagent was added to each well. The bioluminescence was measured using a microplate reader Filtermax F5 Multi-Mode instrument (Molecular Devices) and Softmax software. […] The selectivity index (S.I.) was estimated using the IC50s from mammalian cells divided by the IC50 obtained against the asexual blood stage P. falciparum.

[2] = tested on: β-hematin formation; experiment: β-hematin formation inhibition by infrared spectroscopy; assay type: biochemical; parameters: key: Yes indicates β-hematin inhibition; No indicates β-hematin formation; conditions: 3:1 ratio of drug:hematin, qualitative by infrared
Protocol: The conversion of hemin to β-hematin was determined by infrared (IR) spectroscopy as described by Egan et al.. […] Then, 0.3 mL of 0.1 M HCl and 1.7 mL of sodium acetate buffer ([…], pH 5) were added at the same temperature. […] The solid was dried and IR spectra were obtained using attenuated total reflection (ATR) using chloroquine as a positive control.

[3] = tested on: 3D7 P. falciparum gametocytes stages I/III; experiment: P. falciparum young gametocytes (stages I/III), luciferase viability; assay type: cell-based; conditions: Plasmodium falciparum; 3D7 strain, 72 h; mean ± S.D. of one experiment; read-out: IC50, gametocytes of P. falciparum, Stages I/III
Protocol: The activity of compounds was assessed against young gametocytes (stages I/III) and against mature gametocytes (stage V). […] A volume of 100 μL of 3D7elo1-pfs16-CBG99 gametocytes of 3D7 P. falciparum at 0.5–1% parasitemia and 2% hematocrit were dispensed. […] Luciferase activity was used to determine gametocytes viability. A volume of 100 µL of culture medium was removed from each well to increase hematocrit; 70 µL of resuspended culture was transferred to a black 96-well plate; 70 µL of D-luciferin (1 mM in citrate buffer 0.1 M, pH 5.5) was added. Luminescence measurements were performed after 10 min with 500 ms integration time. The IC50 was extrapolated from nonlinear regression analysis of the concentration–response curve.

[4] = tested on: P. falciparum W2 (CQ-resistant) asexual blood stages; experiment: In vitro activity against asexual blood stages of P. falciparum, CQ-resistant strain W2 (HRP2 ELISA); assay type: cell-based; conditions: Plasmodium falciparum, W2
Protocol: The plates were incubated for 72 h at 37 °C in controlled atmosphere. After frozen and thawing the plates, hemolyzed cultures were homogenized by vortexing the plates. The antiparasitic activity was determined using the HRP2 ELISA-based assay Malaria Ag Celisa kit (ref KM2159, Cellabs PTY LDT, Brookvale, Australia). […] IC50s are expressed as means of three to five experiments.

With `CCN(CC)Cc1cc(Nc2ccnc3cc(Cl)ccc23)ccc1O` [Amodiaquine (AQ), amodiaquine] the CC50 at 72 h [1] was 23800 nM, the “β-Hematin Inhibitory Activity (BHIA) Determined by IR” value [2] was “Yes” and the IC50 [3] was 61 ± 20 nM. For the same compound, the IC50 ([4]; 72 h incubation, HRP2 ELISA, mean ± S.E.M. of at least three experiments, AQ hydrochloride hydrate, PQ diphosphate, CQ diphosphate, read-out: P. falciparum, IC50 ± S.E.M., CQ-Resistant W2) was 86.2 ± 9.4 nM and the IC50 ([4]; Figure 5 summary, read-out: CQ-resistant P.f.) was 86 ± 9 nM.
